Laboratory results as given in PubChem BioAssay AID2060889 (Molecular Pharmacology Branch, DTP, NCI, 2025).

Tested on: LG0567-F671-PDC complex spheroids viability
Experiment: Anticancer human tumor LG0567-F671-PDC patient-derived lung adenocarcinoma cell line growth inhibition [RAS]
Conditions: for IC50: curve of first compound; for viability, T/C: stronger effect = lower value; active = viability on the fitted dose curve at most 10% of control; inactive = the rest
Summary of the method: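 Multi-cell-type spheroids: tumor cells plus HUVEC endothelial cells and mesenchymal stem cells. RAS-pathway inhibitors were combined with targeted agents, each dosed in half-log steps down from clinical Cmax, or from 10 microM when Cmax was unknown.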
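Note: spheroids exposed to compound for seven days before readout.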
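Throughout, for IC50: luminescence signal used as a proxy for viable cells.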

Cc1nc(N2CCC3(CC2)COC(C)C3N)c(CO)nc1Sc1ccnc(N)c1Cl (configuration not stated) + CCn1c(-c2cccnc2C(C)OC)c2c3cc(ccc31)N1CCOC(CC(NC(=O)C(C(C)C)N(C)C(=O)C3(F)CCN(C(=O)C#CC(C)(C)N(C)C)CC3)C(=O)N3CCCC(N3)C(=O)OCC(C)(C)C2)C1
active: viability, T/C (second compound 0.000949 µM, first compound 0.1 µM) 7.91% | viability, T/C (second compound 0.000949 µM, first compound 0.316 µM) 6.47% | viability, T/C (second compound 0.000949 µM, first compound 1 µM) 4.21% | viability, T/C (second compound 0.000949 µM, first compound 3.16 µM) 2.97% | viability, T/C (second compound 0.000949 µM, first compound 10 µM) 3.86% | viability, T/C (second compound 0.003 µM, first compound 0.1 µM) 8.89% | viability, T/C (second compound 0.003 µM, first compound 0.316 µM) 6.21% | viability, T/C (second compound 0.003 µM, first compound 1 µM) 4.14% | viability, T/C (second compound 0.003 µM, first compound 3.16 µM) 3.41% | viability, T/C (second compound 0.003 µM, first compound 10 µM) 2.94% | viability, T/C (second compound 0.00949 µM, first compound 0.1 µM) 8.42% | viability, T/C (second compound 0.00949 µM, first compound 0.316 µM) 5.46% | viability, T/C (second compound 0.00949 µM, first compound 1 µM) 3.45% | viability, T/C (second compound 0.00949 µM, first compound 3.16 µM) 2.86% | viability, T/C (second compound 0.00949 µM, first compound 10 µM) 3.85% | viability, T/C (second compound 0.03 µM, first compound 0.1 µM) 6.81% | viability, T/C (second compound 0.03 µM, first compound 0.316 µM) 6.16% | viability, T/C (second compound 0.03 µM, first compound 1 µM) 3.36% | viability, T/C (second compound 0.03 µM, first compound 3.16 µM) 2.76% | viability, T/C (second compound 0.03 µM, first compound 10 µM) 2.27% | viability, T/C (second compound 0.0949 µM, first compound 0.0316 µM) 6.53% | viability, T/C (second compound 0.0949 µM, first compound 0.1 µM) 6.31% | viability, T/C (second compound 0.0949 µM, first compound 0.316 µM) 5% | viability, T/C (second compound 0.0949 µM, first compound 1 µM) 3.1% | viability, T/C (second compound 0.0949 µM, first compound 3.16 µM) 2.61% | viability, T/C (second compound 0.0949 µM, first compound 10 µM) 3.31% | viability, T/C (second compound 0.3 µM, first compound 0.0316 µM) 6.4% | viability, T/C (second compound 0.3 µM, first compound 0.1 µM) 4.69% | viability, T/C (second compound 0.3 µM, first compound 0.316 µM) 3.02% | viability, T/C (second compound 0.3 µM, first compound 1 µM) 3.78% | viability, T/C (second compound 0.3 µM, first compound 3.16 µM) 2.19% | viability, T/C (second compound 0.3 µM, first compound 10 µM) 3.11%
inactive: viability, T/C (second compound 0.000949 µM, first compound 0.0316 µM) 10.8% | viability, T/C (second compound 0.003 µM, first compound 0.0316 µM) 12% | viability, T/C (second compound 0.00949 µM, first compound 0.0316 µM) 10.7% | viability, T/C (second compound 0.03 µM, first compound 0.0316 µM) 10.3%
< 31.6 nM: IC50 (second compound 0.000949 µM) | IC50 (second compound 0.003 µM) | IC50 (second compound 0.00949 µM) | IC50 (second compound 0.03 µM) | IC50 (second compound 0.0949 µM) | IC50 (second compound 0.3 µM)
